Molecular target: T1, KV1.3 (Homo sapiens, UniProt P22001)
T1 construct: gene KCNA3; human KV1.3 channel (KV1.3-pEYFP) transiently transfected in HEK-293 cells
Experiment: whole-cell patch clamp of KV1.3-transfected HEK-293 cells
Type: cell-based
Settings: HEK293

T1 sequence (P22001 whole entry): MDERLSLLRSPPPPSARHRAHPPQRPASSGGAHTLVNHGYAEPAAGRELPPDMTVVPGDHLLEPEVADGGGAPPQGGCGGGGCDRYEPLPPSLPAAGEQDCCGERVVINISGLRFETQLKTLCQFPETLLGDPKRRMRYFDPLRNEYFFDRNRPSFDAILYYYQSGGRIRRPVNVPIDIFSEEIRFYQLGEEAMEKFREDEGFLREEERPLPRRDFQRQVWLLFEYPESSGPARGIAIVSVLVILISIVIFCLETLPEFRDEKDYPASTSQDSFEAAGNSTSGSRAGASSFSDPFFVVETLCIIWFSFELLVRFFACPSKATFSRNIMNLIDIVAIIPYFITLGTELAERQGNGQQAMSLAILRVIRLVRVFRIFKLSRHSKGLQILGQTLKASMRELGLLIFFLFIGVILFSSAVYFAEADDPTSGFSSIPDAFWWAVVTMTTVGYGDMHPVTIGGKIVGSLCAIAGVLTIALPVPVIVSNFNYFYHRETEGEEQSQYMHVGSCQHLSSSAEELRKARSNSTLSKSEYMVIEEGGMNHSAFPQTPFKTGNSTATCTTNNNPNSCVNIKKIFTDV

Structure (SMILES): O=c1ccc2c(OCCCCOc3ccccc3)c3ccoc3cc2o1 [PAP-1, 5-(4-phenoxybutoxy)psoralen]
- inhibition at 0.2 µM: 89.5 ± 2.8%

Source: PMC5374215, “Fludarabine Inhibits KV1.3 Currents in Human B Lymphocytes” (Frontiers in Pharmacology, 2017)
